Experimental data published in US20110081410A1, “THERAPEUTIC AGENT FOR LOCAL INFLAMMATION” (ST. MARIANNA UNIVERSITY, SCHOOL OFMEDICINE, priority 2005, published 2011).

System: Synovial cells from OA patients
Details: retinoic acid 0.05%, 6 hours after addition, colloidal iron staining
Experimental: Synovial cells from OA patients were cultured, and the retinoic acid nanocapsule containing calcium carbonate as an ingredient of the capsule produced in Example 1, and retinoic acid (atRA) were added thereto. Six hours after the addition, colloidal iron staining was performed to confirm the status of hyaluronic acid production. The evaluation groups were: DMSO as control, atRA, and the retinoic acid nanocapsule. The concentration of added retinoic acid was set 0.05% in both groups of atRA and retinoic acid nanocapsule.

CC1=C(/C=C/C(C)=C/C=C/C(C)=C/C(=O)O)C(C)(C)CCC1 [atRA, All-trans retinoic acid]
Hyaluronic acid production: confirmed
